Experimental data: patent US20220016101A1 (ACADIA Pharmaceuticals Inc., priority 2018, published 2022)
Where two headings read alike, the source gives them in different places.

Assays:
[1] = target: alpha2 adrenergic receptor; details: read-out: affinity (Ki) α2; other noteworthy target; literature sources; cited from earlier work
D4 = target: T1, D4 (Homo sapiens, UniProt P21917); details: other noteworthy target; literature sources; read-out: affinity (Ki) D4; cited from earlier work
T1 sequence (P21917 1-419): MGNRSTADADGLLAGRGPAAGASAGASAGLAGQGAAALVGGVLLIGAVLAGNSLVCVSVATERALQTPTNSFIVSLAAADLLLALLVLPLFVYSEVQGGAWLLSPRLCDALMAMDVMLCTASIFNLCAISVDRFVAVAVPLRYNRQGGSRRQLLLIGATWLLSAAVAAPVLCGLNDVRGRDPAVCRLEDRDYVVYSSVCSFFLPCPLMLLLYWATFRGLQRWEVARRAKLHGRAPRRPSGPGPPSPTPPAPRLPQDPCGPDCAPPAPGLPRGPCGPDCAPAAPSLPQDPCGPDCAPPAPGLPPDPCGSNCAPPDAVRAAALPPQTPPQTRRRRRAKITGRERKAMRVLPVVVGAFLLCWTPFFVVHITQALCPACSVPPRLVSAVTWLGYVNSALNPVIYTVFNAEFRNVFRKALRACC

5-HT2C [2] = target: T2, 5-HT2C (Homo sapiens, UniProt P28335); details: literature sources; read-out: affinity (Ki) 5-HT2C; cited from earlier work
T2 sequence (P28335 33-458): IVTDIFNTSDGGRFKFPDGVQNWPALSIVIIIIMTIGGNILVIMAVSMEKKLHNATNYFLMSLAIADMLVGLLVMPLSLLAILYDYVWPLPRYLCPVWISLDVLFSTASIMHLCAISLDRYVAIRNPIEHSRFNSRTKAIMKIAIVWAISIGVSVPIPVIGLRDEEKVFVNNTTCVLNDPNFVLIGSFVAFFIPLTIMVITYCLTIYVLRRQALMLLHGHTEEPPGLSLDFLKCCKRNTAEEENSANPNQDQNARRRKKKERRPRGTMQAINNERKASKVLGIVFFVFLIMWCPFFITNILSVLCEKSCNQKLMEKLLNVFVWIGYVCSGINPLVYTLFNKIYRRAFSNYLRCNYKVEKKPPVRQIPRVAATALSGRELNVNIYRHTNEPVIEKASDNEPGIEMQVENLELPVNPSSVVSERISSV

[3] = target: alpha1 adrenergic receptor; assay: Receptor profile: affinity (Ki) at α1; assay type: binding; details: other noteworthy target; data on file
patients with MDD = details: Baldwin et al (2013); printed as x to 1; cited from earlier work
5-HT3 = target: T3, 5-HT3 (Homo sapiens, UniProt P46098); details: other noteworthy target; literature sources; read-out: affinity (Ki) 5-HT3; cited from earlier work
T3 sequence (P46098 24-478): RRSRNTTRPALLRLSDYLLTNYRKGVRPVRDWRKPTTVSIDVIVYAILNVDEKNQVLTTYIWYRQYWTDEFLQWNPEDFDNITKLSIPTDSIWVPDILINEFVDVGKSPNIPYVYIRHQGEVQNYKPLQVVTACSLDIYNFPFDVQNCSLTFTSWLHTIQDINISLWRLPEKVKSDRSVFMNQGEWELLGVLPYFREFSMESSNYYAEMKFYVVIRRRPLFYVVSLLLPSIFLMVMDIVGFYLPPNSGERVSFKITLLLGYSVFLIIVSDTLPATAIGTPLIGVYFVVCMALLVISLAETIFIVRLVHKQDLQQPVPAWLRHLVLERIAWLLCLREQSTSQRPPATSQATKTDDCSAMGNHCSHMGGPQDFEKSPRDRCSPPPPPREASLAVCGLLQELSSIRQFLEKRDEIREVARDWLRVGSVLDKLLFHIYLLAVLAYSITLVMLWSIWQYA

dopamine transporter = dopamine transporter (Homo sapiens, UniProt Q01959); assay: Receptor profile: affinity (Ki) at DAT; assay type: binding; details: data on file
Sequence of dopamine transporter (Q01959 whole entry): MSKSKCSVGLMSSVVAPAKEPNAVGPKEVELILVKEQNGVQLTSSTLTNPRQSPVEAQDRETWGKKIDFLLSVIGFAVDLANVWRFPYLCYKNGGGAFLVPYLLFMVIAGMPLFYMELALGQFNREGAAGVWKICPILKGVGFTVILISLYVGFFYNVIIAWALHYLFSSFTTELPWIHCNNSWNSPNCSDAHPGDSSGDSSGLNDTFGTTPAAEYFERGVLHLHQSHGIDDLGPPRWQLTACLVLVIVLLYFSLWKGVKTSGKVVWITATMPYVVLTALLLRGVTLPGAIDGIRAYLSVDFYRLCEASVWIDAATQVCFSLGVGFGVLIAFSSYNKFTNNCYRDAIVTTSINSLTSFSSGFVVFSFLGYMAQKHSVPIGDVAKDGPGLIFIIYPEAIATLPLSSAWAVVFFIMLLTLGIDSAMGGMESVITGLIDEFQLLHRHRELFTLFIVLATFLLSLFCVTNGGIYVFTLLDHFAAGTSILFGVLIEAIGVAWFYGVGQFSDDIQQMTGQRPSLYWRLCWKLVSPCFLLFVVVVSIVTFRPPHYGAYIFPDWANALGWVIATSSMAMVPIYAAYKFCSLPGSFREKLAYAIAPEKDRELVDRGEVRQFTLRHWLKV

5-HT2C [4] = target: T2, 5-HT2C; assay: Receptor profile: affinity (Ki) at 5-HT2C; assay type: binding; details: data on file
serotonin transporter = serotonin transporter (Homo sapiens, UniProt P31645); assay: Receptor profile: affinity (Ki) at SERT; assay type: binding; details: data on file
Sequence of serotonin transporter (P31645 whole entry): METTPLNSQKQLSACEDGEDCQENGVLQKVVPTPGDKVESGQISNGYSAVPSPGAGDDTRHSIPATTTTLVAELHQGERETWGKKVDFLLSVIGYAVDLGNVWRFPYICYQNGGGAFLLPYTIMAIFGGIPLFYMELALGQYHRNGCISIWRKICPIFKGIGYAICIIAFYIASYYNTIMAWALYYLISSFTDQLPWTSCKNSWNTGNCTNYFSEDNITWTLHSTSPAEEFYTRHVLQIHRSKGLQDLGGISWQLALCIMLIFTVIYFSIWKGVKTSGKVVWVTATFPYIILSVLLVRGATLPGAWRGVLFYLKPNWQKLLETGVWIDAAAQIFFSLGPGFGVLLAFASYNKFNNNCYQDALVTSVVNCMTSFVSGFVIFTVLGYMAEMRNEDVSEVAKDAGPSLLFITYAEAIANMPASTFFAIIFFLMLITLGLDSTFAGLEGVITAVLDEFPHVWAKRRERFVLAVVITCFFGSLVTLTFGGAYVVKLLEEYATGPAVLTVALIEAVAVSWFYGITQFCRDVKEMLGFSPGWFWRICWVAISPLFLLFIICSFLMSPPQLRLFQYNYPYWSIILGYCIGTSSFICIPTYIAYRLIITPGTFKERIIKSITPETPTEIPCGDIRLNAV

[5] = target: norepinephrine transporter (Homo sapiens, UniProt P23975); assay: Receptor profile: affinity (Ki) at NET; assay type: binding; details: data on file
Sequence of norepinephrine transporter (P23975 whole entry, species assumed): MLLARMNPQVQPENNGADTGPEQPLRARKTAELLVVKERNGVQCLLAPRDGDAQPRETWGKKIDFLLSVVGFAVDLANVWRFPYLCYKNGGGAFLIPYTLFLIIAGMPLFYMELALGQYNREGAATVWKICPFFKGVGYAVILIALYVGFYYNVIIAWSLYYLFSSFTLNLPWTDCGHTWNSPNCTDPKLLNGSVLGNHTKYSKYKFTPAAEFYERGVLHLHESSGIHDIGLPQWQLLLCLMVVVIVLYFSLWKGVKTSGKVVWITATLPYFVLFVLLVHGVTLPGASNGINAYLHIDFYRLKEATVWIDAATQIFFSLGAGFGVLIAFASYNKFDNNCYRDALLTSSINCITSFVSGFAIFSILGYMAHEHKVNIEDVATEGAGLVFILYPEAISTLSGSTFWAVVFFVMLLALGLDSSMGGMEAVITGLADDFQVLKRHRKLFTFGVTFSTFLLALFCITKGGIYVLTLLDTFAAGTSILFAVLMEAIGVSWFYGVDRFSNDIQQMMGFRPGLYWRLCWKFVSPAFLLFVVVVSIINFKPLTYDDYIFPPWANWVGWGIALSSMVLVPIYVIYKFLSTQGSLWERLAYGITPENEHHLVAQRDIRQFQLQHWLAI

5-HT2A = 5-HT2A (Homo sapiens, UniProt P28223); assay: Receptor profile: affinity (Ki) at 5-HT2A; assay type: binding; details: data on file
Sequence of 5-HT2A (P28223 whole entry, species assumed): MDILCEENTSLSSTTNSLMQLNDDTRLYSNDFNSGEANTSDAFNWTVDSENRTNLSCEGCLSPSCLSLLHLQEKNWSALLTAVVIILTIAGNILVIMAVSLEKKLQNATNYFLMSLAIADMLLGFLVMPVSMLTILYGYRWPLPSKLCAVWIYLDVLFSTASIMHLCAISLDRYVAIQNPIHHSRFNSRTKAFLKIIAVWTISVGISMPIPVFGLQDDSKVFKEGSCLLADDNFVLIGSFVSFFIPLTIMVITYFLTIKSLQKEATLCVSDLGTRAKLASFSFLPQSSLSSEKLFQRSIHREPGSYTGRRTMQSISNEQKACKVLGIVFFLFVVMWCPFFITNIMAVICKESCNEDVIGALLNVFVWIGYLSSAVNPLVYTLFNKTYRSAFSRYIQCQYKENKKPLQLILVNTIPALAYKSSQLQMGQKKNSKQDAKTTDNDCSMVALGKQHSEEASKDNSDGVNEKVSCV

| Ki (dopamine transporter) [nM] | Ki (5-HT2C [4]) [nM] | Ki (serotonin transporter) [nM] | Ki [5] [nM] | SMILES | Ki [1] [nM] | Ki (5-HT2C [2]) [nM] | other results |
| --- | --- | --- | --- | --- | --- | --- | --- |
| – | – | – | – | NC(=O)C1(N2CCCCC2)CCN(CCCC(=O)c2ccc(F)cc2)CC1 [PIP, pipamperone] | 35 | 120 | Ki (D4): 5 nM |
| – | – | – | – | O=C(c1ccc(F)cc1)C1CCN(CCn2c(=O)[nH]c3ccccc3c2=O)CC1 [KET, ketanserin] | – | – | Ki [3]: 15 to 20 nM |
| – | – | – | – | COc1ccc(C(CN(C)C)C2(O)CCCCC2)cc1 (centres unmarked) [venlafaxine] | – | – | odds ratio (drug to placebo) for sexual dysfunction (patients with MDD): 24.42 |
| – | – | – | – | CN1CCN2c3ncccc3Cc3ccccc3C2C1 (centres unmarked) [MIRT, mirtazapine] | 15 to 20 | 40 | Ki (5-HT3): 10 nM |
| > 1000 | > 1000 | > 1000 | > 1000 | N#Cc1c[nH]c2c(C(=O)N3CCN(CCc4ccc(F)cc4)CC3)cccc12 [PRUV, pruvanserin] | – | – | Ki (5-HT2A): 0.7 nM |
| > 1000 | 3 | > 1000 | > 1000 | Cc1nc2sccn2c(=O)c1CCN1CCC(=C(c2ccc(F)cc2)c2ccc(F)cc2)CC1 [RIT, ritanserin] | – | – | – |
